# Laboratory results reported in patent publication US20040214799A1, “Cancerous metastasis inhibitors containing carbacyclic phosphatidic acid derivatives” (priority 2001, published 2004).
# How the values were obtained:
# [1] = tested on: MM1 cells; conditions: Int. J. Cancer 81, 918-922 (1999), cited from earlier work; for suppressed LPA-induced invasion by: studied by Mukai et al.; for invasion suppressing action on LPA-induced invasion (in words): reported by Mukai et al.
# [2] = tested on: MM1 cells; assay: Effect on the proliferation of MM1 cells; format: cell-based, rat; conditions: 12.5 μM or 25 μM cPA, 10% FBS, 24 hours and 72 hours
# Description: 12.5 μM and 25 μM cPA were added to media containing 10% FBS, and then the cells were cultured under conditions of 37° C. and 5% CO2 for 24 hours and 72 hours. The number of the MM1 cells was counted using a hemocytometer.
# [3] = tested on: MM1 cells; assay: In vitro invasion assay, FBS-induced invasion of MM1 cells; format: cell-based, rat; conditions: 25 μM cPA derivative, 10% FBS, 20 hours
# Description: (§1) The abdomen of a male DONRYU rat (300 g, NIPPON BIO-SUPP. CENTER) was opened aseptically. The thus obtained mesenterium was treated with 0.25% trypsin at 37° C. for 15 minutes, filtrated with a 150 μm stainless mesh, and then centrifuged to collect mesothelial cells. The cells were cultured under conditions of 37° C. and 5% CO2 in a medium which was obtained by adding 10% FBS to Eagle's MEMI (Nissui) supplemented with Eagle's MEM amino acid vitamin medium (Nissui) in a volume twice as great as that of the MEMI. A mesothelial cell monolayer which had reached a confluent density after 1 week of culturing was used for invasion assay.
# (§2) The MM1 cells, which are highly invasive clones of rat ascites hepatoma cells (AH-130), were established by Mukai et al., (Int. J. Cancer : 81, 918-922 (1999)), and was cultured under the same conditions as those for mesothelial cells.
# In vitro invasion assay was developed by Akedo et al (Akedo, H et al., Cancer Res. 46, 2416-2422 (1986)). MM1 cells were multi-layer-cultured on the mesothelial cell layer, which had been grown to reach a confluent density, in the presence of 10% FBS or 25 μM LPA (SIGMA). 25 μM cPA was then added. The cells were cultured under conditions of 37° C. and 5% CO2 for 20 hours, and then fixed with 10% formalin. The number of colonies of MM1 cells that had invaded was counted under a phase-contrast microscope (FIG. 3). […]
# [4] = tested on: MM1 cells; assay: In vitro invasion assay, LPA-induced invasion of MM1 cells across mesothelial cell monolayer; format: cell-based, rat; conditions: 25 μM cPA derivative, 25 μM LPA, 20 hours
# Description: as §1, §2
# In vitro invasion assay was developed by Akedo et al (Akedo, H et al., Cancer Res. 46, 2416-2422 (1986)). MM1 cells were multi-layer-cultured on the mesothelial cell layer, which had been grown to reach a confluent density, in the presence of 10% FBS or 25 μM LPA (SIGMA). 25 μM cPA was then added. The cells were cultured under conditions of 37° C. and 5% CO2 for 20 hours, and then fixed with 10% formalin. The number of colonies of MM1 cells that had invaded was counted under a phase-contrast microscope (FIG. 3).
# cPA and LPA were ice-cooled in PBS containing 0.1% fatty-acid free BSA (SIGMA), ultrasonicated, emulsified, stored at −20° C., and then used.
# 0.5 μM, 1 μM and 10 μM carba-cPA were added to MM1 cells, and then in vitro invasion assay was performed similarly to (1-1) in the presence of 25 μM LPA.
# The following reagents were respectively added to an in vitro invasion assay system so as to examine their effects on MM1 cell invasion in the presence of 25 μM LPA: Forskolin (Wako) which directly activates adenylate cyclase (cAMP synthase); cholera toxin (CTX) (GIBCO BRL) which prevent the deactivation of G protein (Gs) which activates adenylate cyclase; Bt2cAMP (nacalai tesque) which can pass through the membrane and functions in a manner similar to that of cAMP when it enters the cell; or isobutylmethylxanthine (IBMX, 3-isobutyl-1-methylxanthine) (SIGMA) which inhibits phosphodiesterase (cAMP degrading enzyme).
# [5] = tested on: HT-1080 cells; assay: In vitro invasion assay of HT-1080 cells in the absence of serum/LPA; format: cell-based, human
# Description: HT-1080 cells were cultured under conditions of 37° C. and 5% CO2 in Eagle's MEMI (Nissui) supplemented with a one-hundredth volume of nonessential amino acid solution (GIBCO BRL) and 10% FBS. […] 4 hours later, the cells were fixed, and then the cells that had invaded were counted.
# [6] = tested on: MM1 cells; assay: Measurement of intracellular cAMP in MM1 cells; format: cell-based, rat; conditions: 25 μM cPA or 10 μM Forskolin, pretreated with 1 mM IBMX
# Description: After a certain time period, 10% ice-cooled TCA was added to stop the reaction. The centrifuged supernatant was washed 4 times with water-saturated diethylether to remove TCA, and then placed under nitrogen gas flow at 60° C. to remove the solvent completely. cAMP in the resultant sample was measured using a cyclic AMP [^3H] assay system (Amersham).
Compound,suppressed LPA-induced invasion by [1],effect on MM1 cell proliferation (in words) [2],further results
CCCCCCCCCCCCCCCCCCCC(=O)OCC1COP(=O)([O-])O1.[Na+] (stereo not shown) [Ara-cPA],around 50%,,
CCCCCCCCCCCC(=O)OCC1COP(=O)([O-])O1.[Na+] (stereo not shown) [Lau-cPA],around 50%,,
CCCCCCCC/C=C\CCCCCCCC(=O)OC[C@@H]1COP(=O)(O)O1 [Ole-cPA],approximately 60%,proliferation suppressing activity,invasion suppressing action on LPA-induced invasion (in words) [1]: weak
CCCCCC[C@@H]1C[C@@H]1CCCCCCCC(=O)OC[C@@H]1COP(=O)(O)O1 [PHYLPA],around 50%,,
CCC=CCC=CCC=CCC=CCC=CCCCC(=O)OCC1COP(=O)(O)O1 (stereo not shown) [cPA-12],,,suppression of FBS-induced invasion [3]: approximately 70%; suppression of LPA-induced invasion (in words) [4]: not suppressed
CCCCCC/C=C\CCCCCCCC(=O)OCC1COP(=O)([O-])O1.[Na+] (stereo not shown) [ΔPal-cPA],around 50%,proliferation suppressing activity,invasion suppressing action on LPA-induced invasion (in words) [1]: weak
carba-Pal-cPA [cPA-18],,no effect on MM1 cell proliferation,"invasion suppressing activity on HT-1080 cells (in words) ([5]; 10 μM cPA, absence of serum/LPA, 4 hours): invasion suppressing activity on the cells at the same strength as or a level stronger than that exhibited by natural cPA; change of intracellular cAMP concentration (in words) ([6]; listed as Carba-Pal-cPA): a similar result was obtained; change of intracellular cAMP concentration (in words) ([6]; listed as carba-Pal-cPA): the change of cAMP concentration was not observed"
"lysophosphatidic acid [LPA, reference compound]",,,promotion of HT-1080 cell invasion (in words) ([5]; 25 μM LPA added): the invasion was no longer promoted
